One series can be described thus: in vivo. The conditions noted are these: male, Crj:CD1, mouse, iv.
Series [1] has as its system abnormal prion proteins in ScN2a cells with persistent infection of scrapie. The series is described as follows: cells. In kind it is cell-based, mouse. The conditions noted are these: for IC50: Mus musculus, ScN2a, 96 h, read-out: Inhibitory effects on producing abnormal prion protein IC50; for Inhibitory effects on producing abnormal prion proteins (in words): ScN2a cells.

For the next series, the system named is ScN2a cells. The conditions noted are these: for Concentration of inhibiting cell proliferation TC: mouse.
For series [2] the following is noted: Slc:ICR, mouse, not told, iv.

Counter-ions that a name gives are not always drawn.

For `Cc1nc(/C=C/c2ccc(N(C)C)cc2O)oc1COCCF` [BF-210], the MTD in “in vivo” was at least 10 mg/kg.

As for `CN(C)c1ncc(-c2nc3ccccc3o2)s1` [BF-225, 2-(2-dimethylamino-thiazol-5-yl)benzoxazole], the MTD in “in vivo” was at least 10 mg/kg.

The term IC50 denotes the concentration that inhibits the measured activity by half. As for `c1ccc2cc(-c3cn4ccccc4n3)ccc2c1` [Compound N-437, 2-(2-naphthyl)imidazo-[1,2-a]pyridine hydrobromide], the IC50 in series [1] stood at 0.001 µM. Besides, the “Concentration of inhibiting cell proliferation TC” value with ScN2a cells turned out to be 100 µM. The molecule further gave an MTD in the series “in vivo” of at least 10 mg/kg.

With `Nc1ccc(-c2ccc3ccccc3n2)cc1` [BF-170, 2-[(4-amino)phenyl]-quinoline], in series [1], the IC50 is 0.1 µM. For the same molecule, in series [2], the “Permeability into the brain: content in Brain” value is 9.1 % ID/g or ml and the “Permeability into the brain: content in Plasma” value is reported as 1.4 % ID/g or ml. Besides, the “Concentration of inhibiting cell proliferation TC” value with ScN2a cells turned out to be 100 µM.

On to `Nc1ccc(-c2ccc3cc(CF)ccc3n2)c(O)c1` [BF-213, 2-[(4-amino-2-hydroxy)-phenyl]-6-(fluoro-methyl)quinoline], for which the IC50 in series [1] turned out to be 0.002 µM. Also, in the series with ScN2a cells, the “Concentration of inhibiting cell proliferation TC” value was 10 µM. In the series “in vivo”, the MTD was at least 10 mg/kg.

Consider `CNc1ccc(/C=C/c2nc3ccccc3o2)c(N)c1` [BF-207, 2-(2-amino-4-N-methyl-aminostyryl)benzoxazole], for which the MTD in the series “in vivo” was at least 10 mg/kg.

`Cc1nc(/C=C/c2ccc(N(C)C)cc2O)oc1CO` [BF-200, 2-[2-[(4-dimethylamino-2-hydroxy)phenyl]-ethenyl]-5-hydroxy methyl-4-methyloxazole] came in with an MTD in the series “in vivo” of at least 10 mg/kg.

`CN(C)c1ncc(/C=C/c2nc3ccccc3o2)o1` [BF-230, 2-[2-(2-dimethylamino-oxazol-5yl)-ethenyl]benzoxazole] gave an MTD in “in vivo” of at least 10 mg/kg.

For the molecule `Cc1nc(/C=C/C=C/c2ccc(N(C)C)cc2)oc1C` [BF-228, 2-[[4-(4-dimethylamino)-phenyl]-1,3-butadienyl]-3,4-dimethyloazole], in series [1], the IC50 came out at 0.016 µM. The “Concentration of inhibiting cell proliferation TC” value with ScN2a cells is above 10 µM. In addition, in “in vivo”, the MTD is at least 10 mg/kg.

With `CN(C)c1ccc(-c2nc3ccccc3s2)cc1` [BF-150, 2-(4-dimethylamino-phenyl) benzothiazole], in series [1], the concentration for half-maximal inhibition (IC50) worked out at 0.001 µM and the “Inhibitory effects on producing abnormal prion proteins (in words)” value (“Inhibitory effects” for short) is recorded as “highly inhibitory effects”. For the same molecule, in series [2], the “Permeability into the brain: content in Brain” value is 11.2 % ID/g or ml and the “Permeability into the brain: content in Plasma” value is recorded as 1.5 % ID/g or ml. The “Concentration of inhibiting cell proliferation TC” value in the series with ScN2a cells was found to be 10 µM.

Regarding `Nc1ccc(/C=C/c2nc3cc(I)ccc3o2)cc1` [BF-173, 2-(4-amino)styryl-5-iodobenzoxazole], in series [1], the IC50 was determined as 0.1 µM. The “Concentration of inhibiting cell proliferation TC” value with ScN2a cells was 100 µM. Also, the MTD in “in vivo” was at least 10 mg/kg.

In the case of `CN(C)c1ccc(/C=C/c2cccs2)cc1` [BF-141, 2-[2-(4-dimethylamino-phenyl)ethenyl]thiophene], in series [1], the IC50 was 0.001 µM and the “Inhibitory effects” value is recorded as “highly inhibitory effects”. The “Concentration of inhibiting cell proliferation TC” value in the series with ScN2a cells was determined as 10 µM. This molecule registered an MTD in the series “in vivo” of 3 to 10 mg/kg.

For `CN(C)c1ccc(-c2cn3cc(I)ccc3n2)cc1` [BF-130, 2-(4-dimethylamino) phenyl-6-iodoimidazo-[1,2-a]pyridine], in series [1], the half-maximal inhibitory concentration (IC50) stood at 0.001 µM and the “Inhibitory effects” value is reported as “highly inhibitory effects”. In series [2], the “Permeability into the brain: content in Brain” value was 7.3 % ID/g or ml and the “Permeability into the brain: content in Plasma” value is recorded as 2.4 % ID/g or ml. Moreover, in the series on ScN2a cells, the “TC and safety concentration margin (in words)” value is “higher TCs, therefore higher safety concentration margins”; the “Concentration of inhibiting cell proliferation TC” value is 100 µM.

Regarding `CNc1ccc(-c2ccc3ccccc3n2)cc1` [BF-158, 2-[(4-methylamino)-phenyl]quinoline], the half-inhibitory concentration (IC50) in series [1] amounted to 0.01 µM. Besides, in series [2], the “Permeability into the brain: content in Brain” value was 9.7 % ID/g or ml and the “Permeability into the brain: content in Plasma” value is listed as 1.8 % ID/g or ml. Besides, the “Concentration of inhibiting cell proliferation TC” value with ScN2a cells came out at 100 µM.

For the molecule `Clc1ccc(/C=C/c2nc3ccccc3o2)cc1` [BF-191, 2-[2-(4-chlorophenyl)ethenyl]benzoxazole], the concentration for half-maximal inhibition (IC50) in series [1] was found to be 0.004 µM. In series [2], the “Permeability into the brain: content in Brain” value is recorded as 12.0 % ID/g or ml and the “Permeability into the brain: content in Plasma” value is recorded as 2.1 % ID/g or ml. The “Concentration of inhibiting cell proliferation TC” value in the series on ScN2a cells was above 10 µM.

Take `CN(C)c1ncc(/C=C/C=C/c2nc3ccccc3[nH]2)s1` [BF-231, 2-[4-(2-dimethylamino-thiazol-5-yl)-1,3-butadienyl]benzimidazole]: in series [1], the 50% inhibitory concentration (IC50) turned out to be 0.0016 µM. Further, in the series on ScN2a cells, the “Concentration of inhibiting cell proliferation TC” value is above 10 µM. In “in vivo”, this molecule gave an MTD of at least 10 mg/kg.

Consider `CN(C)c1ncc(/C=C/c2nc3ccccc3s2)s1` [BF-196, 2-[2-(2-dimethylamino-thiazol-5-yl)ethenyl]-benzothiazole], for which the half-maximal inhibitory concentration (IC50) in series [1] is 0.016 µM. In series [2], the “Permeability into the brain: content in Brain” value was 19 % ID/g or ml and the “Permeability into the brain: content in Plasma” value is listed as 1.8 % ID/g or ml. In addition, the “Concentration of inhibiting cell proliferation TC” value with ScN2a cells is above 10 µM.

As for `CN(C)c1ccc(/C=C/c2nc3ccccc3o2)c(O)c1` [BF-206, 2-(4-dimethylamino-2-hydroxystyryl)-benzoxazole], the concentration for half-maximal inhibition (IC50) in series [1] was 0.002 µM. Besides, the “Concentration of inhibiting cell proliferation TC” value in the series on ScN2a cells is above 10 µM. In addition, in the series “in vivo”, the MTD was at least 10 mg/kg.

For `Nc1ccc(-c2cn3ccccc3n2)cc1` [Compound N-461, 2-(4-aminophenyl)-imidazo[1,2-a]pyridine], the IC50 in series [1] amounted to 0.1 µM. The “Concentration of inhibiting cell proliferation TC” value with ScN2a cells was above 10 µM.

For `Cc1ccc2nc(-c3sc(-c4ccccc4)nc3C)cn2c1` [Compound N-473, 2-(2-phenyl-4-methylthiazol-5-yl)-6-methyl-imidazo[1,2-a]pyridine], the IC50 in series [1] is 1 µM. Moreover, the “Concentration of inhibiting cell proliferation TC” value with ScN2a cells is 100 µM.

As for `Clc1ccc2nc(-c3cccs3)cn2c1` [Compound N-471, 2-(2-thienyl)-6-chloro imidazo[1,2-a]pyridine], the concentration for half-maximal inhibition (IC50) in series [1] was 1 µM. The “Concentration of inhibiting cell proliferation TC” value in the series on ScN2a cells is “≧100 μM”.

For the molecule `Cc1ccc2nc(-c3ccc(NC(=O)Nc4cccc(Cl)c4)cc3)sc2c1` [HT-043, 4-(6-methylbenzothiazol-2-yl)-N-(3-chlorophenyl-aminocarbonyl)aniline], in series [1], the IC50 was 0.1 µM. Moreover, the “Concentration of inhibiting cell proliferation TC” value in the series with ScN2a cells is above 10 µM.

As to `Nc1ccccc1/C=C/c1nc2ccccc2[nH]1` [Compound N-402, 2-[2-(2-aminophenyl)ethenyl]benzimidazole], the concentration for half-maximal inhibition (IC50) in series [1] came to 0.05 µM. The “Concentration of inhibiting cell proliferation TC” value in the series with ScN2a cells is 50 µM.

`CN(C)c1ncc(-c2ccc3ccccc3n2)o1` [BF-221, 2-(2-dimethylamino-oxazol-5-yl)quinoline]: the IC50 in series [1] amounted to 0.08 µM. Further, in the series with ScN2a cells, the “Concentration of inhibiting cell proliferation TC” value was above 10 µM.

`CC1=NN(c2ccc(/C=C/c3nc4ccccc4o3)cc2)C(=O)C1` [BF-181, 2-[2-[4-(3-methyl-5-oxo-2-pyrrozolin-1-yl)-phenyl]ethenyl]benzoxazole] returned an MTD in the series “in vivo” of 3 to 10 mg/kg.

`Nc1ccc(-c2nc3ccc(O)cc3s2)cc1` [BF-160, 2-(4-aminophenyl)-6-hydroxybenzothiazole]: the IC50 in series [1] is 0.01 µM. Besides, the “Concentration of inhibiting cell proliferation TC” value with ScN2a cells stood at 10 µM.

The values are drawn from US20050260126A1 (priority 2002, published 2005).
